{"source": "patent US9962326B2", "about": "“Compositions comprising paulownia tomentosa wood extracts and uses thereof” (JOHNSON & JOHNSON CONSUMER INC., priority 2010, dated 2018)", "tested_on": "UV-induced ROS, primary human keratinocytes", "experiment": "Inhibition of Reactive Oxygen Species Formation in primary human keratinocytes", "type": "cell-based", "conditions": "for Reactive Oxygen Species Produced (MFU): 60 minutes post UV", "protocol": "The anti-oxidant activity of Paulownin was established via the Inhibition of Reactive Oxygen Species Formation assay described above. In this study primary human keratinocytes were substituted for human epithelial (KB) cells. The keratinocytes were plated in 96-well tissue culture treated plates at a density of 5000 cells/well in Dulbecco's modified Eagle's medium (DMEM) supplemented with 10% fetal bovine serum (Invitrogen Corp., San Diego, Calif.). After 48 hours, cells were incubated for 30 minutes with 5 μM of the hydrogen peroxide-sensitive fluorescent probe 5-(and-6)-chloromethyl-2′,7′-dichlorodihydro-fluorescein diacetate, acetyl ester (CM-H2DCFDA) (Invitrogen Corp., Carlsbad, Calif.). After incubation, the plate was rinsed to remove excess probe and Paulownin was added at the indicated concentrations. The plate was immediately read on a fluorescent plate reader set at wavelengths 485 nm excitation/530 nm emission to detect basal peroxide formation. The plate was then exposed to UV (1000W-Oriel solar simulator equipped with a 1 mm Schott WG 320 filter; UV dose applied 4.2 kJ/m^2 as measured at 360 nm). The plate was read 60 minutes post UV exposure and the data reported as mean fluorescent units (MFU).", "data": [{"smiles": "OC12COC(c3ccc4c(c3)OCO4)C1COC2c1ccc2c(c1)OCO2", "note": "(stereo not shown) [Paulownin]", "values": [{"measurement": "UV-induced production of ROS (in words)", "value": "significantly reduce"}, {"measurement": "Percent Inhibition of UV Induced ROS Formation", "setting": "UV + 50 ug/ml", "value": 65.3, "unit": "%"}, {"measurement": "Reactive Oxygen Species Produced (MFU)", "setting": "UV + 50 ug/ml", "value": "46.3 ± 6.9", "unit": "MFU"}, {"measurement": "Percent Inhibition of UV Induced ROS Formation", "setting": "UV + 100 ug/ml", "value": 69.5, "unit": "%"}, {"measurement": "Reactive Oxygen Species Produced (MFU)", "setting": "UV + 100 ug/ml", "value": "40.5 ± 6.1", "unit": "MFU"}, {"measurement": "Percent Inhibition of UV Induced ROS Formation", "setting": "UV + 200 ug/ml", "value": 72.1, "unit": "%"}, {"measurement": "Reactive Oxygen Species Produced (MFU)", "setting": "UV + 200 ug/ml", "value": "37.2 ± 3.4", "unit": "MFU"}]}]}
